Results on eleven molecules are retold here after patent US7312323B2, “Enzymes and polynucleotides encoding the same” (The Horticulture and Food Research Institute of New Zealand …, priority 2002, dated 2007).

In data set [1] the test system is other sesquiterpene synthases. The following applies: read-out: Km in the literature; cited from earlier work.
Another data set has as its target Germacrene D synthase (Actinidia deliciosa, UniProt Q32W37). The data set is described as follows: Kinetic studies with 3H-FDP, pentane overlay scintillation assay. The format is biochemical. The following applies: for inhibition at high concentrations of the chloride salts: >5 mM and 10 mM of the respective Mg2+ and Mn2+ chloride salts; for effect of added ions on activity: 50 mM KCl or NaCl. The procedure:
Optimisation of large-scale production of protein and protein kinetics: E. coli BL21-PlusTM-RIL cells harbouring pET-30a75565 were grown overnight at 37° C. in Lauria-Bertani media supplemented with 30 μg ml^-1 kanamycin and 34 μg ml chloramphenicol^-1. 5 mL aliquots of overnight culture were used to inoculate 4×300 mL of fresh 2× YT medium supplemented with 30 μg ml^-1 […] 34 μg ml^-1 chloramphenicol in 1 L baffled flasks. Cultures were grown at 37° C. with vigorous agitation to A600=0.8, then removed to 4° C. to equilibrate to 16° C. before induction with 0.3 mM IPTG. Induced cultures were then incubated at 16° C. and 220 rpm for a further 72 hours. Cells were pelleted by centrifugation (2500×g; 10 min) and stored overnight at -20° C. The following day cell pellets were resuspended in 20 mL His6 binding buffer and cells were disrupted by 2 passes through an EmulsiFlex®-C15 high-pressure homogeniser (Avestin) with a pressure setting between 15000-20000 psi. Cell debris was pelleted by centrifugation 2× at 10000×g for 15 min; 4° C. (Sorval SS34 rotor). […] Filtered extract was desalted and passed over a Nickel affinity column. Concentration of the recombinant synthase in the purified protein extracts was estimated from SDS-PAGE gels by comparing against a BenchMarkTM Protein Ladder (Invitrogen). Purified extracts were adjusted to a workable concentration with His6 elution buffer (without Imidazole) containing 10% glycerol and 1 mM DTT. The extract was then separated into 100 μl aliquots and stored at -80° C. until required. […] Kinetic Studies: […] Tritiated FDP was added variously depending on the experiment. One mL assays containing 100-150 ng of the recombinant synthase were overlaid with 0.6 mL pentane and incubated in 1.5 mL microfuge tubes for 2 hours at 30° C. and 150 rpm. All assays were performed in triplicate. Following incubation assays were immediately placed on ice and a 200 μL aliquot of the pentane layer removed for analysis. The aliquots were added to 1.5 mL microfuge tubes containing 0.7 mL Organic Counting Scintillant (OCS) (Amersham) and vortexed briefly. Scintillation analysis was performed using a Wallac 1409 Liquid Scintillation Counter (^3H efficiency≈70%). […] The effect on enzyme activity of metal co-factors with and without salts was also tested. Mg^2+ and Mn^2+ were added in the presence and absence of 50 mM KCL and 50 mM NaCl in all possible combinations. Controls included incubation without enzyme, with enzyme but without metal ion cofactors and with enzyme and cofactors in the presence of 10 mM EDTA. A further control comprising His6 purified pET-30a extract was also assayed to determine potential utilisation of FDP by co-purifying bacterial proteins. […] Kinetic constants were determined from the DPM data by nonlinear regression using the Origin50 graphics package.

Data set [2] in a line: Thermal rearrangement, pentane extracts from Actinidia flowers injected at different port temperatures. The format is physicochemical. As to the method: Whole flowers of the same plants were also harvested at anthesis in 2000. 18.6 g and 21 g of flowers from a mixture of developmental stages were placed in 2× Quickfit® Erlenmeyer flasks as above. Volatiles were collected onto a Chromosorb adsorbent trap in duplicate, after the system had been equilibrated for 30 min at room temperature (ca. 23° C.), by purging onto the trap with clean air at 25 mL min^−1 for 60 minutes. The trap was stored at −15° C. for one week and then analysed by GC-FD/MS. The same petals (1.99 g) were then extracted with pentane-ether (2 ml) and stored at −20° C. until analysed. The pentane (GPR, BDH) had been purified by distillation and by passing through a column of activated alumina. Pentane extracts were reduced by rotary evaporation and were dried by passing through a small column of anhydrous MgSO4 before the volume was reduced to ca. 50 μL under a gentle stream of nitrogen. The extract was analysed by GC-FID/MS.
GC-MS Analysis of dynamic headspace samples and pentane extracts: Volatile compounds were thermally desorbed from the headspace traps at 150° C. and were cryo-focussed at the beginning of the GC column (Young, 1981). The column outlet was split between the GC (Hewlett Packard 5890) FID detector (for quantitation) and VG-70SE (VG-Micromass, Manchester, U.K.) mass spectrometer (for component identification) with an electron impact ionisation of 70 eV. Separations were carried out in a 30 m×0.32 mm i.d., 0.5 μn DBWax capillary column (J & W Scientific, Folsom, USA), starting at 30° C. for 6 min, increasing by 3° C. min^−1 to 102° C., 5° C. min^−1 to 210° C. and held for 5 min. Injector temperature was 210° C. The carrier gas was He at a flow rate of ˜30 cm s^−1, and the FID and mass spectrometer transfer line were at 210° C. Quantification of compounds was carried out using an average detector response based on methyl butanoate, ethyl butanoate, hexanol and methyl benzoate. Components were identified by comparison with spectra in the mass spectral database (NIST 1998, Wiley 7 and an in-house database), retention indices (in-house database) and in some cases direct GC-MS comparison with authentic standards. Separations for the earlier 2000 samples were carried out in the same manner as above except the programme started at 30° C. for 6 min, increasing by 3° C. min^−1 to 102° C., 5° C. min^−1 to 190° C. and held for 5 min. Analysis of the pentane extract used a programme of 2 min at 40° C., 5° C. min^−1 to 200° C., 15° C. m^−1 to 240° C. and held for 20 min. For genotype 32-10-07a: the GC-MS was programmed to start at 30° C. for 2 min, increasing by 3° C. min^−1 to 50° C., 5° C. min^−1 to 130° C., 10° C. min^−1 to 240° C. and held for 2 min. Injector temperature was 240° C.
In an experiment to test for thermal rearrangement, injections of pentane extract from purified protein were made at temperatures of 125, 150 and 210° C.; or pentane extract from Actinidia flowers were made at temperatures of 100, 125, 150 and 210° C.

Data set [3] can be described thus: Thermal rearrangement, pentane extracts from purified protein injected at different port temperatures. The format is physicochemical. As to the method:
Dynamic headspace methods were also used to collect the headspace volatiles from the purified extracts on to 100 mg Chromosorb 105 adsorbent traps. The protein was placed into 50 mL Quickfit® test tubes, which were fitted with a headspace adaptor with an air inlet and outlet. Volatiles were collected onto the Chromosorb 105 adsorbent traps, which were fitted to the air outlet port of each adaptor. The volatiles were purged from the vessel onto the traps with clean air at 50 mL min^−1 for 18 hours. The traps were stored at −15° C. for up to one week, and then subjected to GC-FIDIMS analysis. Finally, pentane extracts were taken from the purified extracts. An aliquot (2.5 ml) of pentane was added to the purified extracts and was left to extract for 18 hours. The pentane was removed and then concentrated with a stream of N2 gas. This was then injected onto the GC-MS at 150° C.
More light can be shed on the possibility of rearrangement of the products using pentane extraction.
In an experiment to test for thermal rearrangement, injections of pentane extract from purified protein were made at temperatures of 125, 150 and 210° C.; or pentane extract from Actinidia flowers were made at temperatures of 100, 125, 150 and 210° C. […] Germacrene B modulated slightly in response to temperature shifts although no gamma-elemene was found as might be predicted. In addition the predicted precursor for delta elemene—germacrene C (Feger et al., Flavour and Fragrance Journal 15: 170-173 (2000)) was not detected at any time. Germacrene A was also not detected at any time. […] Elemol may arise from further rearrangements of delta-elemene or from other elemene sources or from hedycaryol (Chamblee et al., J. Essent. Oil Res. 9: 127-132 (1997)). No GC-MS traces in any experiments indicated evidence for germacrene-C or for hedycaryol.

A further data set concerns house dust mites. The settings on record: Chang et al. 2001; cited from earlier work.
The mark [4] stands for this setting: injection port temperature 150 °C.
The mark [5] stands for this setting: injection port temperature 210 °C.
Setting [6] is: injection port temperature 125 °C.

`[Mg+2]` [Mg^2+]: the Km in data set [1] is 70 to 150 µM. On Germacrene D synthase, the “inhibition at high concentrations of the chloride salts” value is “No significant inhibition”.

Regarding `CC(C)=CCC/C(C)=C/CC/C(C)=C/CO[P@@](=O)(O)OP(=O)(O)O` (stereo in doubt) [FDP, farnesyl diphosphate], the Km on Germacrene D synthase (saturating Mg2+, pH 7.5, 30 °C) fell in the range of 1 to 2 µM.

As to `CC(C)=CCC/C(C)=C/CC/C(C)=C/COP(=O)(O)OP(=O)(O)O` [FDP, farnesyl diphosphate], the Km in data set [1] was 0.4 to 4.5 µM. On Germacrene D synthase, the “saturating concentration of FDP” value is roughly 7.5 µM. At Germacrene D synthase (1 mM substrate concentration), the inhibition by substrate is recorded as roughly 50%.

For `C=C[C@]1(C)CC[C@@H](C(C)(C)O)C[C@H]1C(=C)C` [Elemol], the “Peak Area” value was “ca. 8.4 × 10^6” in data set [2] (setting [4]); 3.78 × 10^7 in data set [2] (setting [5]); “ca. 9 × 10^4^” in data set [3] (setting [6]); “ca. 1.4 × 10^5^” in data set [3] (setting [4]); 5.75 × 10^6 in data set [3] (setting [5]).

On to `CC(C)=C1C/C=C(\C)CC/C=C(\C)CC1` [Germacrene B], for which the “Peak Area” value was 5.0 × 10^6 in data set [2] (injection port temperature 100 °C); 7.40 × 10^6 in data set [2] (setting [6]); 1.0 × 10^7 in data set [2] (setting [4]); 3.92 × 10^6 in data set [2] (setting [5]); 7.57 × 10^5 in data set [3] (setting [6]); 8.58 × 10^5 in data set [3] (setting [4]). The “Peak Area” value in data set [3] (setting [5]) is recorded as 5.87 × 10^5.

With `C=C[C@@]1(C)CCC(C(C)C)=C[C@@H]1C(=C)C` [δ-Elemene], the “Peak Area” value is listed as “ca. 5.7 × 10^5” in data set [2] (setting [4]), 4.14 × 10^6 in data set [2] (setting [5]) and 9.05 × 10^5 in data set [3] (setting [5]).

Turning to `[K+]` [K^+], the “effect of added ions on activity” value on Germacrene D synthase is recorded as “little or no effect”.

As for `CC1=C[C@@H]2[C@@H](CC1)[C@](C)(O)CC[C@H]2C(C)C` [Alpha-cadinol], the miticidal activity result in the data set with house dust mites is recorded as “potent miticide”.

`[Mn+2]` [Mn^2+]: the Km in data set [1] is 7 to 30 µM. Moreover, on Germacrene D synthase, the “Vrel with Mn2+ as cofactor relative to Mg2+” value is given as roughly 27%, the “effect of Mn in the buffer when Mg2+ present” value is given as “inhibition of activity” and the “inhibition at high concentrations of the chloride salts” value is “No significant inhibition”.

As for `[Na+]` [Na^+], the “effect of added ions on activity” value on Germacrene D synthase is given as “little or no effect”.

B1: Germacrene D synthase: recombinant His6-tagged sesquiterpene synthase from Actinidia deliciosa petals, SEQ ID NO:2 (protein, listed as Actinidia deliciosa)
chain: MQLPCAQALPIPTVTTTTSIEPPHVTRRSANYHPSIWGDHFLAYSSDAMEEEVINMEQQQRLHHLKQKVRKMLEAAAEQSSQMLNLVDKIQRLGVSYHFETEIETALRHIYKTCDYHFDDLHTAALSFRLLRQQGYPVSCDMFDKFKNSKGEFQESIISDVQGMLSLYEATCLRIHGEDILDEALAFTITQLRSALPNLSTPFKEQIIHALNQPIHKGLTRLNARSHILFFEQNDCHSKDLLNFAKLDFNLLQKLHQRELCEITRWWKDLNFAKTLPFARDRMVECYFWILGVYFEPQYLLARRMLTKVIAMISIIDDIYDVYGTLEELVLFTDAIERWEISALDQLPEYMKLCYQALLDVYSMIDEEMAKQGRSYCVDYAKSSMKILVRAYFEEAKWFHQGYVPTMEEYMQVALVTAGYKMLATSSFVGMGDLATKEAFDWVSNDPLIVQAASVIGRLKDDIVGHKFEQKRGHVASAVECYSKQHGTTEEEAIIELDKQVTHSWKDINAECLCPIKVPMPLLARVLNLARVLYVIYQDEDGYTHPGTKVENFVTSVLIDSMPIN
modifications: His6 tag
As to B1, the entries for the “decrease in enzyme activity” value in the data set with Germacrene D synthase (0.5 pH units lower than 7.5) and with Germacrene D synthase (1 pH unit higher than 7.5) were 47% and 59%, respectively. Moreover, the “activity relative to optimal temperature activity” value in the data set with Germacrene D synthase (16 °C) was roughly 56%. For the same molecule, the “activity at high temperature” value with Germacrene D synthase (50 °C) is on record as “Little or no activity”. In addition, the “Vrel in the absence of DTT” value with Germacrene D synthase (optimal conditions, without DTT) is reported as roughly 53%. Also, the “temperature of maximum synthase activity” value with Germacrene D synthase (range 16-50 °C, 10 mM MgCl2, 10 μM FDP) is 30 °C. Further, the pH optimum with Germacrene D synthase (tri-buffer system pH 5.7-9.5, 10 mM MgCl2, 10 μM FDP) turned out to be 7.5.

In general, Km refers to the substrate concentration at which the rate is half of its maximum.
